According to ChEMBL document CHEMBL1770102, “Identification of novel potential antibiotics for tuberculosis by in silico structure-based drug screening” (Eur J Med Chem, 2011):
Active and inactive are the calls of the source. The rule behind the calls is not given here.

Experiments:
[1] = tested on: Mycobacterium vanbaalenii; experiment: Antibacterial activity against Mycobacterium vanbaalenii assessed as growth inhibition at 30 uM after 6 hrs by microplate reader; format: functional; conditions: Mycolicibacterium vanbaalenii
[2] = tested on: Mycobacterium vanbaalenii; experiment: Antibacterial activity against Mycobacterium vanbaalenii assessed as growth inhibition at 30 uM after 72 hrs by microplate reader; format: functional; conditions: Mycolicibacterium vanbaalenii
MDCK = experiment: Cytotoxicity against dog MDCK cells at 30 uM after 2 days by measuring absorbance at 460 nm; format: cell-based, Canis lupus familiaris; conditions: 48 h
SH-SY5Y = experiment: Cytotoxicity against human SH-SY5Y cells at 30 uM after 2 days by measuring absorbance at 460 nm; format: functional, cell-based
Rhodococcus opacus [3] = experiment: Antibacterial activity against Rhodococcus opacus assessed as growth inhibition at 100 ug/ml after 72 hrs by microplate reader; format: functional
Rhodococcus opacus [4] = experiment: Antibacterial activity against Rhodococcus opacus assessed as growth inhibition at 30 uM after 72 hrs by microplate reader; format: functional
Escherichia coli [5] = experiment: Toxicity against Escherichia coli JM109; format: organism-based; conditions: in vivo
Escherichia coli [6] = experiment: Toxicity against Escherichia coli BL21
[7] = tested on: Mycobacterium vanbaalenii; experiment: Antibacterial activity against Mycobacterium vanbaalenii assessed as inhibition of cell growth after 24 hrs; format: functional, Mycolicibacterium vanbaalenii
Rhodococcus opacus [8] = experiment: Antibacterial activity against Rhodococcus opacus assessed as growth inhibition at 50 uM after 72 hrs by microplate reader; format: functional
[9] = tested on: Mycobacterium tuberculosis; experiment: Antibacterial activity against Mycobacterium tuberculosis assessed as inhibition of cell growth after 24 hrs; format: functional, organism-based

COc1ccc(OC)c(NS(=O)(=O)c2ccc(NC(=O)CN3C(=O)c4cccc5cccc3c45)cc2)c1
growth inhibition (GI) [1]: Active
growth inhibition (GI) [2]: Active
Activity (MDCK): Toxic
Activity (SH-SY5Y): Toxic

CC1(C)S[C@@H]2[C@H](NC(=O)[C@H](N)c3ccccc3)C(=O)N2[C@H]1C(=O)O
growth inhibition (GI) (Rhodococcus opacus [3]): Active

CN(C(=O)CSc1nc(Nc2ccccc2)nc(N2CCOCC2)n1)C12CC3CC(CC(C3)C1)C2
growth inhibition (GI) [1]: Active
growth inhibition (GI) [2]: inactive

COc1cc2c(cc1NC(=O)CSc1nnc(-c3ccccc3C)n1Cc1ccoc1)oc1ccccc12
growth inhibition (GI) [1]: Active
growth inhibition (GI) [2]: Active
growth inhibition (GI) (Rhodococcus opacus [4]): Active
Activity (Escherichia coli [5]): Non-toxic
Activity (Escherichia coli [6]): Non-toxic
IC50 [7]: 5.3 µM
Activity (MDCK): Non-toxic
Activity (SH-SY5Y): Not toxic

COC(=O)c1ccc(Cl)c(NC(=O)CN(c2ccc(OCc3ccccc3)cc2)S(C)(=O)=O)c1
growth inhibition (GI) [1]: Active
growth inhibition (GI) [2]: Active

O=S(=O)(NCCc1ccccc1)c1cccc2c(S(=O)(=O)NCCc3ccccc3)cccc12
growth inhibition (GI) [1]: inactive

NNC(=O)c1ccncc1 [ISONIAZID]
growth inhibition (GI) [2]: Active
growth inhibition (GI) (Rhodococcus opacus [8]): Active
IC50 [9]: 15 µM
